We go through five molecules from patent US20210115104A1, “AMYLIN ANALOGUES” (Zealand Pharma A/S, priority 2015, published 2021).

*1 amine or outer side, *2 acyl side, *3 side chain or, on linkers, in order; H or OH if unused. Where a SMILES comes first, the peptide text is derived from it. Bridges are numbered along the chain shown (N, C = ends). [ ]: non-standard residue; d: D form. The star is where a group is joined. C20 diacid = O=C(O)CCCCCCCCCCCCCCCCCCC(=O)*; γGlu = O=C(O)[C@H](CCC(=O)[*:2])N[*:1]; Hyp = O=C(O)[C@@H]1C[C@@H](O)CN1; NMeI = CC[C@H](C)[C@H](NC)C(=O)O; Aad = N[C@@H](CCCC(=O)O)C(=O)O; Sar = CNCC(=O)O

The experiment addresses T1, human calcitonin receptor (hCTR2) (Homo sapiens, UniProt P30988).
T1 construct: expressed in transfected cells
T1 sequence (P30988 25-474): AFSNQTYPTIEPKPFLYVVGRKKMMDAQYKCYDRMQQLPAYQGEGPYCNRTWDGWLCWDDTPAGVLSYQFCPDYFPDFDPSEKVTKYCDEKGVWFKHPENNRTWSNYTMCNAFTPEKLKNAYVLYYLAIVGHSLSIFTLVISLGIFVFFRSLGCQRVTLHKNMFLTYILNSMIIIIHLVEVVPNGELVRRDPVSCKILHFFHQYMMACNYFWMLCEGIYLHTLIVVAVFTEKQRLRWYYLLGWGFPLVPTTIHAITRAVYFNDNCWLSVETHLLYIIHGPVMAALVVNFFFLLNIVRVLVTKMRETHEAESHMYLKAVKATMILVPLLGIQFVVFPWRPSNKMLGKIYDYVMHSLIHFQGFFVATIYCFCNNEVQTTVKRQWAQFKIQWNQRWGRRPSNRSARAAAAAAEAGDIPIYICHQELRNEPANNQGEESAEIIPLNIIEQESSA
The experiment can be described thus: hCTR2 cAMP assay (AlphaScreen) in COS7 cells. Format: cell-based. Conditions: cAMP induction, COS7 cells expressing hCTR2; Table 1; read-out: hCTR2 EC50. The text has this: The cell line COS7, originating from African Green Monkey kidney fibroblast cells, was used for establishment of the stable cell lines described below. The COS7 cellular background was used due to it being RAMP naïve, and as such it provides the best available system for testing of the monomeric hCTR and different heterodimeric amylin receptor subtypes functionally generated by introduction of the individual RAMPs.
A cell line expressing the human calcitonin receptor (hCTR2) was generated in the COS7 cellular background as stable clones. In brief, hCTR2 (GI: 4502547) was amplified by PCR using primers encoding terminal restriction sites for subcloning. The 5′-end primers additionally encoded a near Kozak consensus sequence to ensure efficient translation. The fidelity of the DNA encoding the receptor was confirmed by DNA sequencing. The PCR products encoding the receptor were subcloned into a mammalian expression vector containing a neomycin (G418) resistance marker. The mammalian expression vector encoding the receptor was transfected into COS7 cells by a standard liposome transfection method. 48 hours post-transfection, cells were seeded for limited dilution cloning and selected with 1 mg/ml G418 in the culture medium. After 3 weeks, surviving colonies of hCTR2-expressing cells were picked, propagated and tested in the amylin efficacy assay as described in Example 3 below. One hCTR2-expressing clone was chosen for compound profiling.
In vitro activity of test peptides at the hCTR2 and hAMYR3 receptors was assessed by measuring the induction of cAMP following stimulation of the receptor using the AlphaScreen® cAMP Assay kit from Perkin-Elmer.
Briefly, COS7 cells expressing hCTR2 (see Example 2, above) were seeded at 30-40,000 cells per well in 96-well microtiter plates coated with 0.01% poly-L-lysine, and grown for 1 day in culture in 100 μl growth medium [DMEM, 10% FCS, Penicillin (100 IU/ml), Streptomycin (100 μg/ml)]. On the day of analysis, growth medium was removed and the cells were washed once with 200 μl Tyrode buffer [Tyrode's Salts (9.6 g/I), 10 mM HEPES, pH 7.4]. Cells were incubated in 100 μl Tyrode buffer containing increasing concentrations of test peptides, 100 µM IBMX and 0.1% casein for 15 min at 37° C. The reaction was stopped by carefully decanting off the compound/buffer medium and replacing it with lysis/detection buffer (80 μl 0.1% w/v BSA, 5 mM HEPES, 0.3% v/v Tween-20 in deionized water). After incubation at room temperature for 10 min., the cAMP content of the resulting cell lysate was estimated according to the AlphaScreen® cAMP Assay manufacturer's instructions. EC50 values were estimated by computer-aided curve fitting using the 4-parameter logistic (4PL) non-linear model.
Background: cAMP levels reflect the balance of adenylyl cyclase and phosphodiesterase activity.
With `CC[C@H](C)[C@@H](C(=O)N[C@@H](CC(C)C)C(=O)N[C@@H](CO)C(=O)N[C@@H](CO)C(=O)N[C@H](C(=O)N[C@@H](CCC(=O)O)C(=O)N[C@H](C(=O)NCC(=O)N[C@@H](CO)C(=O)N[C@@H](CC(N)=O)C(=O)N[C@H](C(=O)N1C[C@H](O)C[C@H]1C(N)=O)[C@@H](C)O)C(C)C)[C@@H](C)O)N(C)C(=O)[C@H](C)NC(=O)CN(C)C(=O)[C@H](Cc1ccccc1)NC(=O)[C@H](CO)NC(=O)[C@H](CO)NC(=O)[C@H](CCCNC(=N)N)NC(=O)[C@H](CCC(N)=O)NC(=O)[C@H](CC(C)C)NC(=O)[C@H](Cc1ccccc1)NC(=O)[C@H](Cc1c[nH]cn1)NC(=O)[C@H](C)NC(=O)[C@H](CC(C)C)NC(=O)[C@H](CCCNC(=N)N)NC(=O)[C@H](CCC(=O)O)NC(=O)[C@@H](NC(=O)[C@H](C)NC(=O)[C@@H]1CSSC[C@H](NC(=O)[C@H](CCCNC(=N)N)NC(=O)CC[C@H](NC(=O)CCCCCCCCCCCCCCCCCCC(=O)O)C(=O)O)C(=O)N2CCC[C@H]2C(=O)N[C@@H]([C@@H](C)O)C(=O)N[C@@H](C)C(=O)N[C@@H]([C@@H](C)O)C(=O)N1)[C@@H](C)O` [Compound 63, [19CD]-isoGlu-R-C( )-PTAT-C( )-ATERLAHFLQRSSF-Gly(Me)-A-Ile(Me)-LSSTEVGSNT-Hyp-NH2] ({C20 diacid-γGlu}-RCPTATCATERLAHFLQRSSF[Sar]A[NMeI]LSSTEVGSNT[Hyp]-NH2; disulfide 2-7), the EC50 (commonly the concentration at which the effect is half-maximal) amounted to 0.35 nM.

Take `CC[C@H](C)[C@@H](C(=O)N[C@@H](CC(C)C)C(=O)N[C@@H](CO)C(=O)N[C@@H](CO)C(=O)N[C@H](C(=O)N[C@@H](CCC(=O)O)C(=O)N[C@H](C(=O)NCC(=O)N[C@@H](CO)C(=O)N[C@@H](CC(N)=O)C(=O)N[C@H](C(=O)N1C[C@H](O)C[C@H]1C(N)=O)[C@@H](C)O)C(C)C)[C@@H](C)O)N(C)C(=O)[C@H](C)NC(=O)CN(C)C(=O)[C@H](Cc1ccccc1)NC(=O)[C@H](CO)NC(=O)[C@H](CO)NC(=O)[C@H](CCCNC(=N)N)NC(=O)[C@@H](NC(=O)[C@H](CC(C)C)NC(=O)[C@H](Cc1ccccc1)NC(=O)[C@H](CC(N)=O)NC(=O)[C@H](C)NC(=O)[C@H](CC(C)C)NC(=O)[C@H](CCCNC(=N)N)NC(=O)[C@H](CCC(=O)O)NC(=O)[C@@H](NC(=O)[C@H](C)NC(=O)[C@@H]1CSSC[C@H](NC(=O)[C@H](CCCNC(=N)N)NC(=O)CC[C@H](NC(=O)CCCCCCCCCCCCCCCCCCC(=O)O)C(=O)O)C(=O)NCC(=O)N[C@@H]([C@@H](C)O)C(=O)N[C@@H](C)C(=O)N[C@@H]([C@@H](C)O)C(=O)N1)[C@@H](C)O)C(C)C` [Compound 17, [19CD]-isoGlu-R-C( )-GTAT-C( )-ATERLANFLVRSSF-Gly(Me)-A-Ile(Me)-LSSTEVGSNT-Hyp-NH2] ({C20 diacid-γGlu}-RCGTATCATERLANFLVRSSF[Sar]A[NMeI]LSSTEVGSNT[Hyp]-NH2; disulfide 2-7): the EC50 was 0.13 nM.

`CC[C@H](C)[C@@H](C(=O)N[C@@H](CC(C)C)C(=O)N[C@@H](CO)C(=O)N[C@@H](CO)C(=O)N[C@H](C(=O)N[C@@H](CCC(=O)O)C(=O)N[C@H](C(=O)NCC(=O)N[C@@H](CO)C(=O)N[C@@H](CCCC(=O)O)C(=O)N[C@H](C(=O)N1C[C@H](O)C[C@H]1C(N)=O)[C@@H](C)O)C(C)C)[C@@H](C)O)N(C)C(=O)[C@H](C)NC(=O)CN(C)C(=O)[C@H](Cc1ccccc1)NC(=O)[C@H](CO)NC(=O)[C@H](CO)NC(=O)[C@H](CCCNC(=N)N)NC(=O)[C@H](CCC(N)=O)NC(=O)[C@H](CC(C)C)NC(=O)[C@H](Cc1ccccc1)NC(=O)[C@H](Cc1c[nH]cn1)NC(=O)[C@H](C)NC(=O)[C@H](CC(C)C)NC(=O)[C@H](CCCNC(=N)N)NC(=O)[C@H](CCC(=O)O)NC(=O)[C@@H](NC(=O)[C@H](C)NC(=O)[C@@H]1CSSC[C@H](NC(=O)[C@H](CCCNC(=N)N)NC(=O)CC[C@H](NC(=O)CCCCCCCCCCCCCCCCCCC(=O)O)C(=O)O)C(=O)N2CCC[C@H]2C(=O)N[C@@H]([C@@H](C)O)C(=O)N[C@@H](C)C(=O)N[C@@H]([C@@H](C)O)C(=O)N1)[C@@H](C)O` [Compound 76, [19CD]-isoGlu-R-C( )-PTAT-C( )-ATERLAHFLQRSSF-Gly(Me)-A-Ile(Me)-LSSTEVGS-Aad-T-Hyp-NH2] ({C20 diacid-γGlu}-RCPTATCATERLAHFLQRSSF[Sar]A[NMeI]LSSTEVGS[Aad]T[Hyp]-NH2; disulfide 2-7): the EC50 worked out at 0.44 nM. For `CC[C@H](C)[C@@H](C(=O)N[C@@H](CC(C)C)C(=O)N[C@@H](CO)C(=O)N[C@@H](CO)C(=O)N[C@H](C(=O)N[C@@H](CCC(=O)O)C(=O)N[C@H](C(=O)NCC(=O)N[C@@H](CO)C(=O)N[C@@H](CO)C(=O)N[C@H](C(=O)N1CCC[C@H]1C(N)=O)[C@@H](C)O)C(C)C)[C@@H](C)O)N(C)C(=O)[C@H](C)NC(=O)CN(C)C(=O)[C@H](Cc1ccccc1)NC(=O)[C@H](CO)NC(=O)[C@H](CO)NC(=O)[C@H](CCCNC(=N)N)NC(=O)[C@H](CCC(=O)O)NC(=O)[C@H](CC(C)C)NC(=O)[C@H](Cc1ccccc1)NC(=O)[C@H](Cc1c[nH]cn1)NC(=O)[C@H](C)NC(=O)[C@H](CC(C)C)NC(=O)[C@H](CCCNC(=N)N)NC(=O)[C@H](CCC(N)=O)NC(=O)[C@@H](NC(=O)[C@H](C)NC(=O)[C@@H]1CSSC[C@H](NC(=O)[C@H](CCCNC(=N)N)NC(=O)CC[C@H](NC(=O)CCCCCCCCCCCCCCCCCCC(=O)O)C(=O)O)C(=O)N[C@@H](CC(N)=O)C(=O)N[C@@H]([C@@H](C)O)C(=O)N[C@@H](C)C(=O)N[C@@H]([C@@H](C)O)C(=O)N1)[C@@H](C)O` [Compound 84, [19CD]-isoGlu-R-C( )-NTAT-C( )-ATQRLAHFLERSSF-Gly(Me)-A-Ile(Me)-LSSTEVGSSTP-NH2] ({C20 diacid-γGlu}-RCNTATCATQRLAHFLERSSF[Sar]A[NMeI]LSSTEVGSSTP-NH2; disulfide 2-7) the value was 0.15 nM; for `CC[C@H](C)[C@@H](C(=O)N[C@@H](CC(C)C)C(=O)N[C@@H](CO)C(=O)N[C@@H](CO)C(=O)N[C@H](C(=O)N[C@@H](CCC(=O)O)C(=O)N[C@H](C(=O)NCC(=O)N[C@@H](CO)C(=O)N[C@H](C(=O)N[C@H](C(=O)N1C[C@H](O)C[C@H]1C(N)=O)[C@@H](C)O)[C@@H](C)O)C(C)C)[C@@H](C)O)N(C)C(=O)[C@H](C)NC(=O)CN(C)C(=O)[C@H](Cc1ccccc1)NC(=O)[C@H](CO)NC(=O)[C@H](CO)NC(=O)[C@H](CCCNC(=N)N)NC(=O)[C@H](CCC(N)=O)NC(=O)[C@H](CC(C)C)NC(=O)[C@H](Cc1ccccc1)NC(=O)[C@H](Cc1c[nH]cn1)NC(=O)[C@H](C)NC(=O)[C@H](CC(C)C)NC(=O)[C@H](CCCNC(=N)N)NC(=O)[C@H](CCC(=O)O)NC(=O)[C@@H](NC(=O)[C@H](C)NC(=O)[C@@H]1CSSC[C@H](NC(=O)[C@H](CCCNC(=N)N)NC(=O)CC[C@H](NC(=O)CCCCCCCCCCCCCCCCCCC(=O)O)C(=O)O)C(=O)N2CCC[C@H]2C(=O)N[C@@H]([C@@H](C)O)C(=O)N[C@@H](C)C(=O)N[C@@H]([C@@H](C)O)C(=O)N1)[C@@H](C)O` [Compound 74, [19CD]-isoGlu-R-C( )-PTAT-C( )-ATERLAHFLQRSSF-Gly(Me)-A-Ile(Me)-LSSTEVGSTT-Hyp-NH2] ({C20 diacid-γGlu}-RCPTATCATERLAHFLQRSSF[Sar]A[NMeI]LSSTEVGSTT[Hyp]-NH2; disulfide 2-7), 0.58 nM.
